The values below come from PubChem BioAssay AID1645866 (Buhrlage Lab, Dana-Farber Cancer Institute and Novartis …, 2021).

The target of this experiment is Ubiquitin carboxyl-terminal hydrolase 28 (Homo sapiens) (UniProt Q96RU2). The experiment in a line: Ubiquitin-specific peptidase 28 DUB inhibitors, biochemical concentration-dependence assay, validation of primary screening hits (AID 1645866). The settings on record: purified USP28, ubiquitin-rhodamine fluorescence, 30 min.

Calls of active or inactive are those of the source.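 How the source made its calls: active means in confirmatory dose-response testing, peak deubiquitinase inhibition of 30% or more; inactive means the rest.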 Bounds are passed on as bounds.

Chain of Ubiquitin carboxyl-terminal hydrolase 28 (Homo sapiens) (Q96RU2 whole entry, looked up): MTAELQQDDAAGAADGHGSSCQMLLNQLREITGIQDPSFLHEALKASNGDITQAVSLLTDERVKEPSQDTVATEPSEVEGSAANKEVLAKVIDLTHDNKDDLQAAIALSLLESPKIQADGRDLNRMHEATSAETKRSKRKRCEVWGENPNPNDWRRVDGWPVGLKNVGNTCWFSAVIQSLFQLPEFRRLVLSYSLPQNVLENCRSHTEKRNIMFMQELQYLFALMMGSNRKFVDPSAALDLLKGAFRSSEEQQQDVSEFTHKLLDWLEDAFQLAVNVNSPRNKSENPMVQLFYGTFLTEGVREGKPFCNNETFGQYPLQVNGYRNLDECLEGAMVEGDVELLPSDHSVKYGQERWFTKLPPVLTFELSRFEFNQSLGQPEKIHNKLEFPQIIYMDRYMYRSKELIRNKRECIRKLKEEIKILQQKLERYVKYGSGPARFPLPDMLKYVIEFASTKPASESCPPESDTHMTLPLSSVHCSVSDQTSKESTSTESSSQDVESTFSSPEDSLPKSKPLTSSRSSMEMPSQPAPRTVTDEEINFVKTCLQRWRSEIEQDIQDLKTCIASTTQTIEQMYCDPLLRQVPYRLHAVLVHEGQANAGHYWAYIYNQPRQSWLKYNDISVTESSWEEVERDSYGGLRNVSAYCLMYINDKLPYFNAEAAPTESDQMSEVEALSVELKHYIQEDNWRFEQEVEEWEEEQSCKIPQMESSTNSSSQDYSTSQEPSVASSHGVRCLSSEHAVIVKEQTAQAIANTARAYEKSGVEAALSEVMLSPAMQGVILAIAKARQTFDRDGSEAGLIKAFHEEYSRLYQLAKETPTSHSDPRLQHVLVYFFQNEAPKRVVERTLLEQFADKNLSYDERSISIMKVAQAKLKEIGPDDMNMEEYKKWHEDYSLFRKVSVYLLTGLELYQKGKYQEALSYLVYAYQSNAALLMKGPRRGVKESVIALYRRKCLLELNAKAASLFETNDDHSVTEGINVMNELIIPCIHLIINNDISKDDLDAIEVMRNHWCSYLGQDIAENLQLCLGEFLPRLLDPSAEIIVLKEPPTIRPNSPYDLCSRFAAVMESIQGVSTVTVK

The IC50 is the concentration that inhibits the measured activity by half. As to `CCC[C@H]1O[C@@H]2CC(=O)O[C@@H]2C2=C1C(=O)c1c(O)cccc1C2=O`, the IC50 was 14.3 µM. On to `O=C(CCCC(=O)c1ccccc1)Nc1ccc(F)cc1`, for which the IC50 is 35 µM.

Consider `O=C(CCc1nnc2n(Cc3ccccc3)c(=O)c3ccccc3n12)N1CCN(c2ccccn2)CC1`, for which the 50% inhibitory concentration (IC50) is 2.98 µM.

In the case of `O=C(Cn1c(=O)nc(-c2ccccc2)c2ccccc21)NCc1ccc2c(c1)OCO2`, the concentration for half-maximal inhibition (IC50) was 27.9 µM. The result for `O=C(Nc1ccccc1Sc1ncc(-c2ccc(Cl)cc2)cn1)c1ccco1` reads 23.6 µM; that for `O=C(CC1Oc2ccccc2NC1=O)Nc1ccccc1Br` (centres undefined), 38 µM; that for `CCc1cc(=O)n(CC(=O)Nc2cc(C)ccc2OC)c(N2CCOCC2)n1`, 26.2 µM. Turning to `COc1ccc(NC(=O)CSc2nnc(Cc3cccc4ccccc34)n2C)cc1`, the concentration for half-maximal inhibition (IC50) was 17.5 µM. As for `Cn1c(=O)c2c(ncn2CC(=O)NC2CCCc3ccccc32)n(C)c1=O` (centres undefined), the IC50 is > 50 µM (inactive).

`O=C(Nc1ccc(F)cc1)Nc1ccccc1OCc1cc(=O)n2ccccc2n1`: the IC50 is 9.44 µM. The same measure for `Cc1ccccc1NC(=O)c1nc(-c2cn(Cc3ccc(F)cc3)nn2)no1`: 5.88 µM; for `CC1CCCCN1c1nc(F)c2c(c1F)S(=O)(=O)CCN2Cc1ccccc1` (centres undefined): > 50 µM (inactive).

`COc1ccc(C(=O)NCCc2nnc3ccc(SCC(=O)NCc4ccc(F)cc4)nn23)cc1`: the IC50 is 15.7 µM. As for `CCOc1ccc(C2=NCCNC3=C2C(c2ccccc2)N(c2ccccc2)C3=O)cc1` (centres undefined), the IC50 was > 50 µM (inactive). The same measure for `Cc1nc2ccccn2c1C1(O)C(=O)Nc2c(Cl)cc(Cl)cc21` (centres undefined): > 50 µM (inactive); for `Cc1ccccc1Cn1cc(SCC(=O)Nc2ccc3c(c2)OCCO3)c2ccccc21`: 4.81 µM. The same measure for `COc1cc2c(cc1OC)C(COc1ccccc1OC)N(C(=O)c1ccc3ccccc3c1)CC2` (centres undefined): > 50 µM (inactive); for `CCOC(=O)c1ccc(NC(=O)Cn2c(=O)n(CC(=O)NCc3ccco3)c(=O)c3ccccc32)cc1`: 2.31 µM; for `Cc1nc(N2CCCC2)ncc1-c1cc(=O)[nH]c(N2CCc3ccccc3C2)n1`: 21.9 µM. The result for `COc1cccc(-n2c(CNCc3cccnc3)nc3ccc([N+](=O)[O-])cc3c2=O)c1` reads 20.2 µM; that for `Cc1cc(O)c(=O)cc2c1C[C@H]1CC(C)(C)/C=C/C[C@@]3(C)Oc4cc(=O)c(O)cc(C)c4C[C@@H]3C[C@H](O)[C@]1(C)O2`, > 50 µM (inactive); that for `O=C(CCSc1ccc(Cl)cc1)c1cccs1`, 19.4 µM. Regarding `Cc1ccc(-c2nc(Cn3nnc(-c4nc(-c5ccccn5)no4)c3C)c(C)o2)cc1`, the IC50 was > 50 µM (inactive). The result for `O=C(NCCN1CCCC1)C1CCN(c2cnc(N3CCCCC3)nc2)CC1` reads less than 0.05 µM. The same measure for `COc1ccc(NC(=O)CN2CCN(c3ccc(C(C)=O)cc3)CC2)cc1S(=O)(=O)N1CCCCC1`: 40.4 µM; for `COc1ccc(CCNC(=O)c2noc3c2CCc2sccc2-3)cc1OC`: 0.655 µM; for `Cc1cccc(NC(=O)CN2C(=O)CC(c3ccccc3)S(=O)(=O)c3ccccc32)c1C` (centres undefined): 21.6 µM. The same measure for `O=S(=O)(c1ccc2c(c1)OCCO2)N(Cc1ccccc1)Cc1nnc(-c2ccccc2)o1`: > 50 µM (inactive); for `Cc1ccc(NC(=O)c2ccc3c(c2)N(S(C)(=O)=O)CC3)cc1`: 25.2 µM. `CC(C)=CCC/C(C)=C/Cc1c(O)cc2c(c1O)C(=O)OC2`: the half-maximal inhibitory concentration (IC50) is 2.33 µM. The result for `CCOc1ccc(CCNC(=O)c2ccc3c(c2)N(CC)C(=O)c2ccccc2S3)cc1OCC` reads 1.89 µM. The result for `CN(C)c1cc(-n2cnc(C(=O)NCc3ccccc3Cl)c2)ncn1` reads 19.8 µM. The result for `Cn1c(CCN2CCCC2)nc2cc(NC(=O)c3ccccc3)ccc21` reads > 50 µM (inactive); that for `COc1ccccc1S(=O)(=O)N1CC[C@@H]2CN(C)[C@@H]2C1`, 35.1 µM; that for `CC1CC(=O)N(Cc2ccc([N+](=O)[O-])cc2)c2ccccc2S1` (centres undefined), 13.3 µM. Consider `c1ccc(CCN2CCc3nc4cccnc4cc3C2)nc1`, for which the IC50 is > 50 µM (inactive). The same measure for `Cc1ccc2cccc(OCc3nnc(SCC(=O)c4ccc(Cl)cc4)n3C)c2n1`: 4.77 µM.

Regarding `COc1ccc(-n2c(=O)c(CCC(=O)O)nc3ccccc32)cc1`, the IC50 is > 50 µM (inactive). The result for `CCCNC(=O)c1ccn(-c2ccc3ccc(-c4cnn(C)c4)cn23)n1` reads > 50 µM (inactive).

Take `Cc1cc(O)cc2cc3c(c(O)c12)C(=O)CCC3O` (centres undefined): the IC50 is > 50 µM (inactive). The result for `Cc1nc(Nc2ncc(C)s2)cc(C2CN(C(=O)Cc3ccccc3)CCO2)n1` (centres undefined) reads 43.8 µM; that for `Cc1ccccc1C(=O)c1ccc(C(=O)NC2CCCCCC2)[nH]1`, 7.45 µM. The same measure for `Cc1ccc(-c2ncc(C(=O)NCc3cccc(C)c3)c(-c3ccncc3)n2)cc1`: > 50 µM (inactive); for `CC(C)c1cc(NCc2ccccc2)n2nc(-c3cccnc3)nc2n1`: 16.9 µM. Turning to `COc1ccccc1Nc1ncc(C(=O)NCCc2ccc(Cl)cc2)c2ccccc12`, the IC50 is 4.31 µM. Turning to `COc1ccccc1NC(=O)c1cc2c(C)nn(Cc3ccccc3)c2s1`, the concentration for half-maximal inhibition (IC50) was 38.1 µM.

With `Cc1ccc(C2c3cccn3CCN2C(=O)Nc2ccccc2)cc1` (centres undefined), the IC50 was > 50 µM (inactive). The same measure for `COc1ccc(NC(=O)CC(=O)c2ccc([N+](=O)[O-])cc2)cc1S(=O)(=O)Nc1ccc(Cl)cc1`: 33.3 µM; for `Cc1ccnc(NC(=O)c2ccn(COc3ccc(Cl)cc3)n2)c1`: 21.9 µM.

`COc1c(C)c(C(O)C(C)O)c2[nH]c3ccc(CC=C(C)C)cc3c2c1O` (centres undefined): the concentration for half-maximal inhibition (IC50) is 17.4 µM. The result for `COc1ccc(CCNC(=O)COc2ncnc3oc(C)c(C)c23)cc1OC` reads > 50 µM (inactive); that for `COc1ccccc1OCC(=O)Nc1ccc2c(c1)CCC(=O)N2Cc1ccccc1`, > 50 µM (inactive); that for `CCn1cnc2c1c(=O)n(CC(=O)NCc1ccccc1Cl)c(=O)n2Cc1ccccc1`, > 50 µM (inactive). The result for `N#Cc1ccc(Cc2ncc(C(F)(F)F)cc2Cl)s1` reads 8.21 µM; that for `COc1ccc(OC)c2c(C)cc(N3CCN(S(=O)(=O)c4ccc5c(c4)CCCN5S(C)(=O)=O)CC3)nc12`, 17.9 µM.

Turning to `O=C(NC1CCS(=O)(=O)C1)c1ccc(N2CCC(Cc3ccccc3)CC2)nn1` (centres undefined), the IC50 was > 50 µM (inactive). Turning to `Cc1ccc(Nc2nc(Nc3cccc(Cl)c3)nc3nccnc23)cc1`, the IC50 was > 50 µM (inactive).

Take `CCOc1ccc(NC(=O)Cn2cnc(S(=O)(=O)N3CCc4ccccc43)c2)cc1`: the IC50 is 27.6 µM. The same measure for `Cc1cc(C)c(NC(=O)Cn2c(=O)n(CCC(=O)NCc3ccc4c(c3)OCO4)c(=O)c3sccc32)c(C)c1`: 2.67 µM. As to `Cc1cc(C)n(-c2ccc(C(=O)Nc3cccc(S(=O)(=O)N4CCCC4)c3)cc2)n1`, the half-inhibitory concentration (IC50) is 2.13 µM. The result for `O=C(O)c1ccccc1C(=O)Nc1ccc(SC(C(=O)Nc2cccc(Cl)c2)c2ccccc2)cc1` (centres undefined) reads 22.4 µM. On to `CSc1nc2ncc3c(=O)n(CCc4ccccc4)ccc3n2n1`, for which the IC50 was > 50 µM (inactive). The same measure for `COc1ccc(CCNC(=O)[C@H](CCSC)NC(=O)N2CCn3c2nc2ccccc23)cc1OC`: > 50 µM (inactive); for `CC(C(=O)NCc1ccc(F)cc1)n1cccc1C(=O)c1ccccc1` (centres undefined): > 50 µM (inactive).
